The text below walks through data of patent US8168178B2, “Methods and compositions for regulating lymphocyte activity” (Curis, Inc., priority 1999, dated 2012).

Assay [1] relates to thymocytes in wild-type FTOC. Description: Fetal thymic organ culture (FTOC) of wild-type thymus, flow cytometry of thymocyte subsets. Format: cell-based, mouse. Here is the method:
Utilizing a fetal thymic organ culture (FTOC), the effects of Shh on T-cell maturation was determined. Briefly, immature thymocytes (CD4^−/CD8^− [DN]) were isolated from E14 thymus. The cells were culture for about 7 days, and the level of mature thymocytes, e.g., CD4^+/CD8^+ [DP], was assessed. In certain cultures, octyl-modified Shh was added to the culture; in other cultures, the anti-hedgehog 5E1 antibody was added.
We have previously shown that treatment of wild-type FTOC with between 0.3 and 1 μg/ml recombinant Shh arrested thymocyte development at the DN stage (Outram et al., Immunity 13: 187, 2000). This arrest was not due to nonspecific toxicity of the recombinant Shh, but was a genuine biological effect, as it could be neutralized by addition of anti-Hh mAb. […] Therefore, we decided to determine whether treatment of FTOC with lower concentrations of Shh could promote thymocyte development. We treated wild-type FTOC for 5 days with 0.0005 μg/ml Shh or 0.5 μg/ml Shh. In a typical experiment, treatment with 0.5 μg/ml Shh arrested thymocyte development at the DN stage, and <1% of thymocytes were DP compared with 7.6% in the control cultures, whereas treatment with 0.0005 μg/ml Shh promoted thymocyte development, and 15.2% of cells were DP (FIG. 12A). […] Treatment with 0.5 μg/ml inhibited both the production of DP cells and the overall cell recovery, and this inhibition was neutralized by addition of anti-Hh mAb, confirming that the arrest in thymocyte development was not the result of non-specific toxicity of the reagent (FIG. 12B). Thus, in wild-type FTOC, treatment with different concentrations of recombinant Shh can produce distinct outcomes at the transition from DN to DP cells; high-dose Shh treatment arrests thymocyte development, but treatment with a 1000-fold lower dose promotes the production of DP cells (FIG. 12, A-C).
(§1) Thymocyte suspensions were prepared by crushing thymi between two pieces of ground glass. Cells were stained using combinations of the following directly conjugated antibodies obtained from BD Pharmingen: anti-CD44FITC, anti-CD44Cychrome, anti-CD25 PE, anti-CD25 FITC, anti-CD4FITC, anti-CD8 Cychrome, anti-CD4PE, anti-CD4Cychrome, anti-CD8FITC, anti-CD45.1PE, anti-CD45.2FITC, anti-CD3PE and anti-TCR-βPE. Cell suspensions were stained with the antibodies for 30 minutes on ice in 50 μl of Dulbeccos modified medium (Life Technologies), supplemented with 5% FCS and 0.1% sodium azide. Cells were washed in this medium between incubations and prior to analysis on the FACScan (Becton Dickinson). Events were collected in list mode using CellQuest software and data analysed using CellQuest Pro software. Live cells were gated according to their FSC and SSC profiles. Data are representative of at least three experiments.
(§2) Fetal thymi were dissected from E14.5 Shh +/+, +/− and −/− mice and cultured on 8 μm pore size Millipore filters (Millipore) in AIM-V serum free medium (Life Technologies). Thymi were cultured at 37° C. and 5% CO2 for 3 or 6 days or cultured in the presence of 0.5 μg/ml or 0.0005 μg/ml modified human Shh (Curis) for 7 days.
A general note: In flow cytometry, cells or beads pass a laser one at a time.

In assay [2] the test system is thymocytes in Shh−/− FTOC. The assay is described as follows: FTOC of E14.5 Shh−/− thymus explants treated with recombinant Shh. Format: cell-based, mouse. Here is the method: As thymocyte cellularity and differentiation were reduced in Shh−/− thymi, we examined if we could promote thymocyte development in Shh−/− thymus explants by treatment with recombinant Shh. We have previously shown that treatment of wildtype FTOC with between 0.3 to 1 μg/ml recombinant Shh arrested thymocyte development at the DN stage (Outram et al., 2000). […] We treated Shh−/− thymus explants for 7 days with 0.5 or 0.0005 μg/ml recombinant Shh. Treatment with 0.5 μg/ml Shh inhibited differentiation from DN to DP cells. In a typical experiment, 5.2% of thymocytes were DP in the treated cultures compared with 36.6% in control cultures (FIG. 12, D and E). Thus, Shh−/− thymocytes were able to respond to a Shh signal in the same way as wildtype thymocytes, despite the fact that they had not been exposed to Shh in vivo. Although this high dose of Shh arrested thymocyte differentiation, some activation of the Hh signalling pathway is clearly necessary for normal thymocyte differentiation. We therefore treated Shh−/− explants with a 1000-fold lower dose of recombinant Shh (0.0005 μg/ml). Treatment of Shh−/− thymus explants with low-dose Shh promoted differentiation to DP cell: After 7 days in culture Shh−/− thymus explants treated with 0.0005 μg/ml Shh contained more DP thymocytes than untreated Shh−/− thymus explants −41.6% DP thymocytes and 32.7% DN thymocytes in treated Shh−/− thymus explants, compared with 36.6% DP cells and 43.1% DN cells in untreated control Shh−/− thymus cultures (FIG. 9b).
We repeated these experiments by treating individual Shh−/− thymus lobes with recombinant Shh and comparing them to untreated cultures of the other lobe from the same embryo (summarized in FIG. 12F, cell production in each culture condition compared with that in the control lobe are shown on a log scale).
as §1, §2

For assay [3], the system named is thymocytes in wild-type FTOC. The note with it: cited from earlier work.

As to “Shh: hydrophobically modified human Shh signalling protein, N-octyl-malemide coupled to amino-terminal cysteine of bacterially derived N-shh (Curis)”, the “percentage of cells with markers indicative of immature thymocytes” value in assay [1] (E14 thymus, about 7 days culture, high dose of Shh 0.5 μg/ml) is reported as “increase”. Besides, in assay [1] (FTOC, FIG. 12B), the “Shh concentration at which Hedgehog functions as an immunosuppressant” value is “more than 0.1 μg/ml”. Moreover, the “promotion of thymocyte development” value in assay [1] (wild-type FTOC, 0.00005 μg/ml) is “lost”. The “cells that were DP” value in assay [1] (wild-type FTOC, 5 days, 0.0005 μg/ml Shh, control cultures 7.6%) was 15.2%. Moreover, the “thymocytes that were DP” value in assay [1] (wild-type FTOC, 5 days, 0.5 μg/ml Shh, control cultures 7.6%) is given as under 1%; in assay [2] (Shh−/− explants, 7 days, 0.5 μg/ml Shh, control cultures 36.6%) it was 5.2%. Also, the DN thymocytes in assay [2] (Shh−/− explants, 7 days, 0.0005 μg/ml Shh, untreated 43.1%) is 32.7%. Further, the “production of DP cells” value in assay [2] (Shh−/− explants, low dose treatment (0.0005 μg/ml), overall) is “more than doubled”. In addition, in assay [2] (Shh−/− explants, low-dose Shh (0.0005 μg/ml)), the “cell number compared to control” value is reported as “increased”. Further, the “differentiation from DN to DP cells” value in assay [2] (Shh−/− thymus explants, 0.5 μg/ml Shh) is on record as “inhibited”. Besides, in assay [2] (individual Shh−/− thymus lobes, high dose Shh), the “overall cell production and differentiation to DP cell” value was “inhibited”. The “thymocyte development at the DN3 stage, after TCRβ chain gene rearrangement” value in assay [3] (in vitro treatment of FTOC (Outram et al. 2000)) is given as “arrested”. Also, in assay [3] (wild-type FTOC, between 0.3 and 1 μg/ml recombinant Shh (Outram et al. 2000)), the “thymocyte development at the DN stage” value is “arrested”.
